Measurements from ChEMBL document CHEMBL1201862, “PubChem BioAssay data set” (2004).
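Test compounds were applied to cells in 96-well plates for 48 hours at 5 doses. Here, GI50 denotes the concentration required for 50% inhibition of growth.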 The source made the active and inactive calls. Cut-off read from the data, not from the text of the source: active = GI50 up to about 1.1 µM and inactive = higher.

Experiments:
Experiment in all cases: DTP human tumour cell line panel, 48 h
[1] = test system: RXF 393
[2] = test system: Malme-3M
[3] = test system: A498
[4] = test system: NCI-H460
[5] = test system: SF-268
[6] = test system: SN12C
[7] = test system: SNB-19
[8] = test system: UO-31
[9] = test system: PC-3
[10] = test system: ACHN
[11] = test system: MDA-N
[12] = test system: Hs-578T
[13] = test system: MDA-MB-231
[14] = test system: SNB-75
[15] = test system: NCI/ADR-RES
[16] = test system: U-251
[17] = test system: SF-539
[18] = test system: IGROV-1
[19] = test system: CCRF-CEM
[20] = test system: HCT-116

Structure (SMILES)	GI50 [1]	GI50 [2]	GI50 [3]	GI50 [4]	GI50 [5]	GI50 [6]	GI50 [7]	GI50 [8]	GI50 [9]	GI50 [10]	GI50 [11]	GI50 [12]	GI50 [13]	GI50 [14]	GI50 [15]	GI50 [16]	GI50 [17]	GI50 [18]	GI50 [19]	GI50 [20]
c1ccc2c(c1)Cn1c-2nc2ccccc21	82 µM (inactive)	76 µM (inactive)	> 100 µM (inactive)	97.3 µM (inactive)	> 100 µM (inactive)	> 100 µM (inactive)	> 100 µM (inactive)	4.83 µM (inactive)	> 100 µM (inactive)	96.6 µM (inactive)	> 100 µM (inactive)	> 100 µM (inactive)	> 100 µM (inactive)	< 0.01 µM (active)	> 100 µM (inactive)	> 100 µM (inactive)	> 100 µM (inactive)	> 100 µM (inactive)	> 100 µM (inactive)	> 100 µM (inactive)
COC(=O)c1cc2c(cc1CC1Cc3cc4c(cc3C1)CCC4)CCC2	34 µM (inactive)	86.5 µM (inactive)	> 100 µM (inactive)	51.1 µM (inactive)	56.9 µM (inactive)	79.1 µM (inactive)	93.3 µM (inactive)	32 µM (inactive)	74.3 µM (inactive)	43.4 µM (inactive)	36.1 µM (inactive)	66.8 µM (inactive)	77.3 µM (inactive)	40.1 µM (inactive)	> 100 µM (inactive)	34.9 µM (inactive)	79.4 µM (inactive)	53 µM (inactive)	16.9 µM (inactive)	35.6 µM (inactive)
COc1ccc(-c2c3c(n(C4OC(CO)C(O)C(O)C4O)c(=S)c2C#N)CC(C)(C)CC3=O)cc1 (stereo not given)	> 100 µM (inactive)	> 100 µM (inactive)	> 100 µM (inactive)	> 100 µM (inactive)	> 100 µM (inactive)	> 100 µM (inactive)	> 100 µM (inactive)	> 100 µM (inactive)	> 100 µM (inactive)	> 100 µM (inactive)	> 100 µM (inactive)	> 100 µM (inactive)	> 100 µM (inactive)	96.6 µM (inactive)	> 100 µM (inactive)	> 100 µM (inactive)	> 100 µM (inactive)	> 100 µM (inactive)	> 100 µM (inactive)	73.3 µM (inactive)
O=C1C(=O)N(c2cccc(C(F)(F)F)c2)C(=O)C(=O)C1c1nc2ccccc2s1	> 100 µM (inactive)	68.1 µM (inactive)	> 100 µM (inactive)	> 100 µM (inactive)	98.2 µM (inactive)	> 93.3 µM (inactive)	> 100 µM (inactive)	79.8 µM (inactive)	> 100 µM (inactive)	> 65.2 µM (inactive)	> 100 µM (inactive)	> 100 µM (inactive)	73.6 µM (inactive)	> 49.5 µM (inactive)	45.2 µM (inactive)	62.4 µM (inactive)	> 100 µM (inactive)	> 81.7 µM (inactive)	24.5 µM (inactive)	43.8 µM (inactive)
COc1ccc2nc(N/N=C/C(C)=N/Nc3cc(C)c4cc(OC)ccc4n3)cc(C)c2c1	39.9 µM (inactive)	50.9 µM (inactive)	> 68.2 µM (inactive)	14.7 µM (inactive)	25.6 µM (inactive)	23.9 µM (inactive)	23.1 µM (inactive)	> 80.4 µM (inactive)	22.3 µM (inactive)	26.7 µM (inactive)	23.7 µM (inactive)	31 µM (inactive)	19 µM (inactive)	21.9 µM (inactive)	22 µM (inactive)	16.2 µM (inactive)	17.8 µM (inactive)	21 µM (inactive)	2.47 µM (inactive)	14.2 µM (inactive)
O=c1n(-c2ccc(Cl)c(Cl)c2)c(=O)n(-c2ccc(Cl)c(Cl)c2)c(=O)n1-c1ccc(Cl)c(Cl)c1	3.21 µM (inactive)	3.3 µM (inactive)	2.73 µM (inactive)	1.59 µM (inactive)	2.45 µM (inactive)	3.09 µM (inactive)	5.01 µM (inactive)	2.76 µM (inactive)	0.703 µM (active)	2.39 µM (inactive)	2.9 µM (inactive)	2.96 µM (inactive)	1.8 µM (inactive)	2.53 µM (inactive)	3.1 µM (inactive)	3.71 µM (inactive)	0.769 µM (active)	3.21 µM (inactive)	1.15 µM (inactive)	1.2 µM (inactive)
CCOC(=O)NC(N(C)C(C(C)C)P(=O)(OCC)OCC)(C(F)(F)F)C(F)(F)F (stereo not given)	> 100 µM (inactive)	> 100 µM (inactive)	> 100 µM (inactive)	> 100 µM (inactive)	> 100 µM (inactive)	> 100 µM (inactive)	> 100 µM (inactive)	> 100 µM (inactive)	> 100 µM (inactive)	> 100 µM (inactive)	> 100 µM (inactive)	> 100 µM (inactive)	> 100 µM (inactive)	> 100 µM (inactive)	> 100 µM (inactive)	> 100 µM (inactive)	> 100 µM (inactive)	> 100 µM (inactive)	> 100 µM (inactive)	> 100 µM (inactive)
Cc1ccc(/N=C2/SC(c3ccc(C)cc3)(c3ccc(C)cc3)c3ccccc32)cc1	> 100 µM (inactive)	> 100 µM (inactive)	> 100 µM (inactive)	> 100 µM (inactive)	> 100 µM (inactive)	> 100 µM (inactive)	> 100 µM (inactive)	> 100 µM (inactive)	> 100 µM (inactive)	> 100 µM (inactive)	> 100 µM (inactive)	> 100 µM (inactive)	> 100 µM (inactive)	> 100 µM (inactive)	> 100 µM (inactive)	> 100 µM (inactive)	> 100 µM (inactive)	> 100 µM (inactive)	> 100 µM (inactive)	> 100 µM (inactive)
C=C1C(=O)O[C@@H]2C[C@]3(C)CC[C@]4(C)[C@H](CC[C@@H]5[C@@]6(C)CCC(=O)C(C)(C)[C@@H]6CC[C@]54C)[C@H]3[C@H]12 [OCHRACEOLIDE A]	16.6 µM (inactive)	15.8 µM (inactive)	21 µM (inactive)	18.5 µM (inactive)	22.2 µM (inactive)	17.5 µM (inactive)	26.9 µM (inactive)	14.8 µM (inactive)	14.7 µM (inactive)	11.9 µM (inactive)	15.3 µM (inactive)	31.6 µM (inactive)	24.7 µM (inactive)	20.7 µM (inactive)	22.2 µM (inactive)	19 µM (inactive)	21.7 µM (inactive)	18.7 µM (inactive)	2.43 µM (inactive)	13.6 µM (inactive)
